Test results as given in patent US7923441B2, “Enhancement of activity and/or duration of action of soft anti-inflammatory steroids for topical or other local application” (priority 2003, dated 2011).

Experiments:
[1] = tested on: forearm of a human volunteer; assay: Human vasoconstriction (blanching) testing; assay type: in vivo; settings: for effect on the vasoconstrictor activity of loteprednol etabonate: co-applied, 1:5 molar ratio loteprednol etabonate:enhancer, especially at the lower concentrations; for AUC (sum of the individual vasoconstriction scores through 36 hours): compound alone; for vasoconstriction activity: tested alone
Procedure: Test compounds at varying mM concentrations as noted below were dissolved in ethanol/propylene glycol (9/1) solution, and 20 μL of the mixtures were applied to filter paper discs, 0.7 cm in diameter. After ethanol evaporation, each disc was attached to waterproof adhesive tape, then applied to the forearm of a human volunteer and left in place for 4 hours. Groups of 8 forearms were tested at each concentration. The intensity of vasoconstriction was judged at 2, 4, 6, 8, 10, 12, 18, 24 and 36 hours after removal of the discs.
The grading scale for the vasoconstriction activity was as follows: 0, normal skin; 1, slight pallor of indistinct outline; 2, pallor with at least two corners outlined; 3, even pallor with a clear outline of the application sites; 4, very intense pallor. The scores were totaled at each concentration at each time after removal to give a total score at each time interval and an overall total for each concentration. The higher the total score, the greater the blanching or anti-inflammatory effect.

[2] = tested on: forearms of human volunteers; assay: Further human vasoconstriction testing; assay type: in vivo; settings: for effect on the vasoconstriction activity of BEM-17V: BEM-17V 0.1 mM; for effect on the vasoconstriction activity of BEM-17V / effect on the vasoconstriction activity of LE: enhancer 0.1-0.5 mM; for effect on the vasoconstriction activity of LE: LE 0.1 mM; for synergism with LE: LE:enhancer ratios 1:1, 1:2, 1:3, 1:4 and 1:5; for AUC (sum of the individual vasoconstriction scores through 24 hours): steroid 0.1 mM alone
Procedure: The resultant LE and BEM-17V solutions were then mixed (1:1) with vehicle only, or with the Δ^1-CA or Δ^1-MeCA solutions, so that LE solutions (0.1 mM) and BEM-17V solutions (0.1 mM) containing various concentrations of Δ^1-CA (0 to 0.5 mM) or Δ^1-MeCA (0 to 0.5 mM) were obtained. The resultant mixtures (20 μl) were loaded onto circular patches (6.5 mm diameter) that were attached to a water impervious adhesive film (3M). After the evaporation of ethanol, the patches and film were applied to the forearms of human volunteers for 4 hours. […] The grading scale was as follows: 0, normal skin; 1, slight pallor; 2, pallor with at least two corners outlined; 3, even pallor with a clear outline of the application sites; 4, very intense pallor. […] As before, an overall total for each concentration was then obtained.

receptor = biological target: T1, receptor (Rattus norvegicus, UniProt P06536); settings: medium containing 10^−5M cortienic acid as competitor; cited from earlier work
T1 sequence (P06536 1-795): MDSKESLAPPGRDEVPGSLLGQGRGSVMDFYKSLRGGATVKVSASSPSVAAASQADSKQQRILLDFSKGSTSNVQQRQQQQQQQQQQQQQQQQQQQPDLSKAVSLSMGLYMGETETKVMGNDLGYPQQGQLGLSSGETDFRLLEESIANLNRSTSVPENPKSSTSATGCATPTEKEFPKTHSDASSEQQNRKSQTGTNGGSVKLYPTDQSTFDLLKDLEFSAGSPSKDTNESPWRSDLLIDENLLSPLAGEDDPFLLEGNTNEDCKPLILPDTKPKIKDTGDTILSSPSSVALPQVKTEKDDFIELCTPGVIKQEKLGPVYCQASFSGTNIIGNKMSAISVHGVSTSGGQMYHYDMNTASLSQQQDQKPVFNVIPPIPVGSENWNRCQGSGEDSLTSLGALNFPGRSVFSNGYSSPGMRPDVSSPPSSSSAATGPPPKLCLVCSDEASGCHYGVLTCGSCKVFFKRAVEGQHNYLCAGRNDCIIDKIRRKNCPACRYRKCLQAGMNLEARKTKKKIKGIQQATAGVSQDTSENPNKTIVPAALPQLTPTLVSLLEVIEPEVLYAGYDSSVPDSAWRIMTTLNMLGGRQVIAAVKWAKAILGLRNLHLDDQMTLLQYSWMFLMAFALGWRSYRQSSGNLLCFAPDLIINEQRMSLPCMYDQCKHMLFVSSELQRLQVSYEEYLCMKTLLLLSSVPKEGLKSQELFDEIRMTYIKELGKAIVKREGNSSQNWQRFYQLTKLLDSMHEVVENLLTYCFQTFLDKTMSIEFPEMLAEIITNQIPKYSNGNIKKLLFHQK

[3] = control (0 mM) of the Δ^1-CA series
[4] = control (0 mM) of the Δ^1-MeCA series

## COC(=O)[C@@]1(O)CCC2C3CCC4=CC(=O)C=CC4(C)C3C(O)CC21C (stereo partly drawn) [Δ^1-Cortienic Acid Methyl Ester, methyl 11β,17α-dihydroxyandrosta-1,4-dien-3-one-17β-carboxylate]
[1]
  effect on the vasoconstrictor activity of loteprednol etabonate: significantly enhanced
  vasoconstriction activity: neither Δ^1-cortienic acid nor Δ^1-cortienic acid methyl ester had any vasoconstriction activity
[1]; 0.5 mM
  AUC (sum of the individual vasoconstriction scores through 36 hours): 0
[1]; 2.5 mM
  AUC (sum of the individual vasoconstriction scores through 36 hours): 0
[1]; 5 mM
  AUC (sum of the individual vasoconstriction scores through 36 hours): 0
[1]; 25 mM
  AUC (sum of the individual vasoconstriction scores through 36 hours): 0
[1]; 50 mM
  AUC (sum of the individual vasoconstriction scores through 36 hours): 0
[2]
  effect on the vasoconstriction activity of BEM-17V: no activity-increasing effect
  effect on the vasoconstriction activity of LE: increased the vasoconstriction activity of LE
  synergism with LE: synergistic results

## CCOC(=O)OC1(C(=O)O)CCC2C3CCC4=CC(=O)C=CC4(C)C3C(O)CC21C (stereo not drawn) [the corresponding 17α-ethyl carbonate, 17α-ethoxycarbonyloxy-11β-hydroxyandrost-1,4-dien-3-one-17β-carboxylic acid]
receptor
  intrinsic activity in receptor binding studies: inactive

## betamethasone 17-valerate [Betamethasone Valerate, reference compound]
[2]; [3]
  AUC (sum of the individual vasoconstriction scores through 24 hours): 107
[2]; [4]
  AUC (sum of the individual vasoconstriction scores through 24 hours): 112

## chloromethyl 17α-ethoxycarbonyloxy-11β-hydroxyandrosta-1,4-dien-3-one-17β-carboxylate [Loteprednol Etabonate, reference compound]
receptor
  intrinsic activity in receptor binding studies: intrinsically active

## CCOC(=O)O[C@]1(C(=O)OCCl)CC[C@H]2[C@@H]3CCC4=CC(=O)C=C[C@]4(C)[C@H]3[C@@H](O)C[C@@]21C [Loteprednol Etabonate, chloromethyl 17α-ethoxycarbonyloxy-11β-hydroxyandrosta-1,4-dien-3-one-17β-carboxylate, reference compound]
[1]; 0.1 mM, 20 μL on disc, 4 h application, 8 forearms
  AUC (sum of the individual vasoconstriction scores through 36 hours): 9
[1]; 0.5 mM
  AUC (sum of the individual vasoconstriction scores through 36 hours): 39
[1]; 1 mM
  AUC (sum of the individual vasoconstriction scores through 36 hours): 90
[1]; 5 mM
  AUC (sum of the individual vasoconstriction scores through 36 hours): 117
[1]; 10 mM
  AUC (sum of the individual vasoconstriction scores through 36 hours): 122
[1]
  vasoconstriction activity: significant activity
[2]; [3]
  AUC (sum of the individual vasoconstriction scores through 24 hours): 99
[2]; [4]
  AUC (sum of the individual vasoconstriction scores through 24 hours): 114

## CC12C=CC(=O)C=C1CCC1C2C(O)CC2(C)C1CC[C@]2(O)C(=O)O (stereo partly drawn) [Δ^1-Cortienic Acid, 11β,17α-dihydroxyandrosta-1,4-dien-3-one-17β-carboxylic acid]
[1]
  effect on the vasoconstrictor activity of loteprednol etabonate: significantly enhanced
  vasoconstriction activity: neither Δ^1-cortienic acid nor Δ^1-cortienic acid methyl ester had any vasoconstriction activity
[1]; 0.5 mM
  AUC (sum of the individual vasoconstriction scores through 36 hours): 0
[1]; 2.5 mM
  AUC (sum of the individual vasoconstriction scores through 36 hours): 0
[1]; 5 mM
  AUC (sum of the individual vasoconstriction scores through 36 hours): 0
[1]; 25 mM
  AUC (sum of the individual vasoconstriction scores through 36 hours): 0
[1]; 50 mM
  AUC (sum of the individual vasoconstriction scores through 36 hours): 0
receptor
  intrinsic activity in receptor binding studies: inactive
[2]
  effect on the vasoconstriction activity of BEM-17V: no activity-increasing effect
  effect on the vasoconstriction activity of LE: increased the vasoconstriction activity of LE
  synergism with LE: synergistic results
